Source: patent US20130071854A1, “METHODS FOR THE IDENTIFICATION AND CHARACTERIZATION OF HDAC INTERACTING COMPOUNDS” (priority 2009, published 2013)
Where two headings read alike, the source gives them in different places.

How the values were obtained:
MIER3 = assay: Chemoproteomic binding profiling, K562 cell extract, SAHA/ITF2357 probe matrix (Kd app), ELSA (ELM-SANT) domain protein; design: species or system human; conditions: ELSA (ELM-SANT) domain proteins
[1] = biological target: T1, non-HDAC targets (e.g. BZW2, ISOC2, aldehyde dehydrogenases) (Homo sapiens, UniProt Q08209); assay: Chemoproteomic binding profiling, K562 cell extract, SAHA/ITF2357 probe matrix (Kd app); conditions: protein PPP3CA; selected HDACi off-targets
T1 construct: Kd^app PPP3CA; other: protein PPP3CA; selected HDACi off-targets

[2] = biological target: T2, non-HDAC targets (e.g. BZW2, ISOC2, aldehyde dehydrogenases) (Homo sapiens, UniProt Q9Y6E2); assay: as above; conditions: protein BZW2; selected HDACi off-targets
T2 construct: endogenous in cells; host or cells: K562 whole cell extract
T2 sequence (Q9Y6E2 1-419): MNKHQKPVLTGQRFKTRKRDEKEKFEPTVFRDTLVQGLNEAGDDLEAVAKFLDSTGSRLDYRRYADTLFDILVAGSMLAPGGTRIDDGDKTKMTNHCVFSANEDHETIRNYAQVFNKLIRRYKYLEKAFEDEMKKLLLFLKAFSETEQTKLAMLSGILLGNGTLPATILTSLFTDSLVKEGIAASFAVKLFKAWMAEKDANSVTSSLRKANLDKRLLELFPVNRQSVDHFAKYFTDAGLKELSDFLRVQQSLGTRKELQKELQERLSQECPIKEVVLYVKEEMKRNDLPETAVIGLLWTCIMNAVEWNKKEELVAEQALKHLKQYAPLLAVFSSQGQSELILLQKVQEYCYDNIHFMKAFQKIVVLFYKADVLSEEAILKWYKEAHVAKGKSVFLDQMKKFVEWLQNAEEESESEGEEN

[3] = biological target: T3, non-HDAC targets (e.g. BZW2, ISOC2, aldehyde dehydrogenases) (Homo sapiens, UniProt O94788); assay: as above; conditions: protein ALDH1A2; selected HDACi off-targets
T3 construct: endogenous in cells; host or cells: K562 whole cell extract
T3 sequence (O94788 1-518): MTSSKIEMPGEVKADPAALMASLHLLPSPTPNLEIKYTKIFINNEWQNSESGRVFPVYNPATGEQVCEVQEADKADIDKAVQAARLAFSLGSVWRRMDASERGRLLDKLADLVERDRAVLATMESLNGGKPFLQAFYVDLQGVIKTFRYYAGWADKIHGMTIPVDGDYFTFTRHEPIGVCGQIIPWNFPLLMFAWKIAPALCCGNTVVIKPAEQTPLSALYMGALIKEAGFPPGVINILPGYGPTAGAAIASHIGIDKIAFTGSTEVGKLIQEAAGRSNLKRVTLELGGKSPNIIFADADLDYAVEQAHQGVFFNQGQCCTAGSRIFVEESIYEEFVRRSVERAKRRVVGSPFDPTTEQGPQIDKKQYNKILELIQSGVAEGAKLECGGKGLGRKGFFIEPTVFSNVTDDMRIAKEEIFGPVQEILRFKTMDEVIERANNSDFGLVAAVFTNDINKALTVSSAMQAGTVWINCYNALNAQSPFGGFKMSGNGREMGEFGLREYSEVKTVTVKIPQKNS

[4] = biological target: T4, non-HDAC targets (e.g. BZW2, ISOC2, aldehyde dehydrogenases) (Homo sapiens, UniProt P16152); assay: as above; conditions: protein CBR1; selected HDACi off-targets
T4 construct: Kd^app CBR1; other: protein CBR1; selected HDACi off-targets
T4 sequence (P16152 1-277): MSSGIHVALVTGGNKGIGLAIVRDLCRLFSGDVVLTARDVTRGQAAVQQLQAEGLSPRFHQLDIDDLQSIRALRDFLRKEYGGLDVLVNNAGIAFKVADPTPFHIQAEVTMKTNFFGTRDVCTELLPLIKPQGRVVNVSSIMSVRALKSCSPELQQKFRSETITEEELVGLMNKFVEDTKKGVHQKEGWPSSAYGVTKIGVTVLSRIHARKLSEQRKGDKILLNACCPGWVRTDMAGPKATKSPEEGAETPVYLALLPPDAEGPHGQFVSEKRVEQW

[5] = biological target: T5, non-HDAC targets (e.g. BZW2, ISOC2, aldehyde dehydrogenases) (Homo sapiens, UniProt Q96AB3); assay: as above; conditions: protein ISOC2; selected HDACi off-targets
T5 construct: endogenous in cells; host or cells: K562 whole cell extract
T5 sequence (Q96AB3 1-205): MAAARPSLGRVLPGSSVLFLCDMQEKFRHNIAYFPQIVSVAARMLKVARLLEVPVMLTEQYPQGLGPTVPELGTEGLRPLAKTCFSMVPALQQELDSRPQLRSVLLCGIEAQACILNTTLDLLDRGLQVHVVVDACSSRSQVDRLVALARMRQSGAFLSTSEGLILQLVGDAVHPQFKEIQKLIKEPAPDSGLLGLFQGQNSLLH

EHMT2 = assay: Chemoproteomic binding profiling, K562 cell extract, SAHA/ITF2357 probe matrix (Kd app), ELSA (ELM-SANT) domain proteins group; design: species or system human; conditions: protein EHMT2
RERE = assay: Chemoproteomic binding profiling, K562 cell extract, SAHA/ITF2357 probe matrix (Kd app), ELSA (ELM-SANT) domain protein; design: species or system human; conditions: protein RERE; ELSA (ELM-SANT) domain proteins
MIER2 = assay: as above; design: species or system human; conditions: ELSA (ELM-SANT) domain proteins
NuRD complex = assay: Chemoproteomic binding profiling, K562 cell extract, SAHA/ITF2357 probe matrix (Kd app); design: species or system human
CoREST complex = assay: as above; design: species or system human
[6] = tested on: acetylated histones H3 and H4; assay: Cell-based histone acetylation assay (immunofluorescence, western blotting); design: species or system human; conditions: K562 and HeLa cells
acetylated tubulin = assay: Cell-based tubulin acetylation assay (immunofluorescence, western blotting); design: species or system human; conditions: K562 and HeLa cells; immunofluorescence and western blotting
MIER1 = assay: Chemoproteomic binding profiling, K562 cell extract, SAHA/ITF2357 probe matrix (Kd app), ELSA (ELM-SANT) domain protein; design: species or system human; conditions: ELSA (ELM-SANT) domain proteins
HDAC10 = biological target: T6, HDAC10 (Homo sapiens, UniProt Q969S8); assay: Chemoproteomic binding profiling, K562 cell extract, SAHA/ITF2357 probe matrix (Kd app); conditions: protein HDAC10; class II HDAC; read-out: Kd^app HDAC10
T6 construct: used to probe endogenous HDACs in K562 whole cell extracts; endogenous in cells
T6 sequence (Q969S8 1-669): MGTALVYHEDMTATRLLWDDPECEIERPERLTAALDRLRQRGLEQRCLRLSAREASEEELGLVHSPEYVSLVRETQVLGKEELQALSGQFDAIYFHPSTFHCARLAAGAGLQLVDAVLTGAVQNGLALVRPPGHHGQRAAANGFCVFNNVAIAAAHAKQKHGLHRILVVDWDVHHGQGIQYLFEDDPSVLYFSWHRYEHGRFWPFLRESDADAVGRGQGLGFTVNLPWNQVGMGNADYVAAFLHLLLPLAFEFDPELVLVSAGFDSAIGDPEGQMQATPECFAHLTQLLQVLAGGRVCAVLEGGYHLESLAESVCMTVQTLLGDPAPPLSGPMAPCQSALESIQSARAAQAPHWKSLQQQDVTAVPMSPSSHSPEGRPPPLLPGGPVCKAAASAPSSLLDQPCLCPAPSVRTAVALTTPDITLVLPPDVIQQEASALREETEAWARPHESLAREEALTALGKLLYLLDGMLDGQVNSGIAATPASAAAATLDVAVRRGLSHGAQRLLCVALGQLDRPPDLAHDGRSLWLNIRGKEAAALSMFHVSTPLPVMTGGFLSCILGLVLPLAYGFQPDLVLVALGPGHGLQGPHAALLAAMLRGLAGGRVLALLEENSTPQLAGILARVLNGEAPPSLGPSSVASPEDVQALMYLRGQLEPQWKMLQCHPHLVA

[7] = protein GATAD2A, NuRD complex, read-out: Kd^app GATAD2A
[8] = protein GATAD2B, NuRD complex, read-out: Kd^app GATAD2B
[9] = protein MBD3, NuRD complex, read-out: Kd^app MBD3
[10] = protein MTA1, NuRD complex, read-out: Kd^app MTA1
[11] = protein MTA2, NuRD complex, read-out: Kd^app MTA2
[12] = protein MTA3, NuRD complex, read-out: Kd^app MTA3
[13] = protein GSE1, CoREST complex, read-out: Kd^app GSE1
[14] = protein HMG20A, CoREST complex, read-out: Kd^app HMG20A
[15] = protein HMG20B, CoREST complex, read-out: Kd^app HMG20B
[16] = protein PHF21A, CoREST complex, read-out: Kd^app PHF21A
[17] = protein RCOR1, CoREST complex, read-out: Kd^app RCOR1
[18] = protein RCOR3, CoREST complex, read-out: Kd^app RCOR3
[19] = protein ZMYM2, CoREST complex, read-out: Kd^app ZMYM2

## O=C(CCCCCN1C(=O)c2cccc3cccc(c23)C1=O)NO [scriptaid]
MIER3
  Kd: 320 nM
[1]
  Kd: > 10000 nM
[2]
  Kd: 4840 nM
[3]
  Kd: 5380 nM
[4]
  Kd: > 10000 nM
[5]
  Kd: 350 nM
EHMT2
  Kd: 1300 nM
RERE
  Kd: 790 nM
MIER2
  Kd: 810 nM

## Cc1[nH]c2ccccc2c1CCNCc1ccc(/C=C/C(=O)NO)cc1 [panobinostat]
[1]
  Kd: 12100 nM
[2]
  Kd: > 10000 nM
[3]
  Kd: > 10000 nM
[4]
  Kd: 8230 nM
[5]
  Kd: > 10000 nM

## CN(C)Cc1c(C(=O)NCCOc2ccc(C(=O)NO)cc2)oc2ccccc12 [PCI-24781]
NuRD complex; protein CHD4, NuRD complex, read-out: Kd^app CHD4
  Kd: 160 nM
NuRD complex; [7]
  Kd: 60 nM
NuRD complex; [8]
  Kd: 70 nM
NuRD complex; protein MBD2, NuRD complex, read-out: Kd^app MBD2
  Kd: 170 nM
NuRD complex; [9]
  Kd: 40 nM
NuRD complex; [10]
  Kd: 50 nM
NuRD complex; [11]
  Kd: 60 nM
NuRD complex; [12]
  Kd: 50 nM
MIER3
  Kd: 20 nM
[1]
  Kd: > 10000 nM
[2]
  Kd: > 10000 nM
[3]
  Kd: > 10000 nM
[4]
  Kd: > 10000 nM
[5]
  Kd: > 10000 nM
RERE
  Kd: 210 nM
CoREST complex; [13]
  Kd: 20 nM
CoREST complex; [14]
  Kd: 20 nM
CoREST complex; [15]
  Kd: 30 nM
CoREST complex; [16]
  Kd: 50 nM
CoREST complex; [17]
  Kd: 20 nM
CoREST complex; protein RCOR2, CoREST complex, read-out: Kd^app RCOR2
  Kd: 20 nM
CoREST complex; [18]
  Kd: 20 nM
CoREST complex; [19]
  Kd: 20 nM
CoREST complex; protein ZMYM3, CoREST complex, read-out: Kd^app ZMYM3
  Kd: 40 nM
[6]
  histone acetylation (in words): increased steady state acetylation of tubulin and histones
Acetylated tubulin
  tubulin acetylation (in words): increased steady state acetylation of tubulin and histones
MIER1
  Kd: 60 nM

## Nc1ccccc1NC(=O)c1ccc(CNc2nccc(-c3cccnc3)n2)cc1 [Mocetinostat]
NuRD complex; read-out: Kd^app CHD4
  Kd: 170000 nM
NuRD complex; read-out: Kd^app GATAD2A
  Kd: 183000 nM
NuRD complex; read-out: Kd^app GATAD2B
  Kd: 106000 nM
NuRD complex; read-out: Kd^app MBD2
  Kd: 217000 nM
NuRD complex; read-out: Kd^app MBD3
  Kd: 119000 nM
NuRD complex; read-out: Kd^app MTA1
  Kd: 136000 nM
NuRD complex; read-out: Kd^app MTA3
  Kd: 87000 nM
MIER3
  Kd: 34000 nM
HDAC10
  Kd: > 271000 nM
[1]
  Kd: > 271000 nM
[2]
  Kd: > 271000 nM
[3]
  Kd: 230000 nM
[4]
  Kd: 109000 nM
[5]
  Kd: > 271000 nM
EHMT2
  Kd: > 271000 nM
RERE
  Kd: > 271000 nM
MIER2
  Kd: 99000 nM
CoREST complex; read-out: Kd^app GSE1
  Kd: 50000 nM
CoREST complex; read-out: Kd^app HMG20A
  Kd: 53000 nM
CoREST complex; read-out: Kd^app HMG20B
  Kd: 62000 nM
CoREST complex; read-out: Kd^app PHF21A
  Kd: 189000 nM
CoREST complex; read-out: Kd^app RCOR1
  Kd: 48000 nM
CoREST complex; read-out: Kd^app RCOR2
  Kd: 103000 nM
CoREST complex; read-out: Kd^app RCOR3
  Kd: 60000 nM
CoREST complex; read-out: Kd^app ZMYM2
  Kd: 124000 nM
CoREST complex; read-out: Kd^app ZMYM3
  Kd: 255000 nM
MIER1
  Kd: 73000 nM

## O=C(/C=C/c1ccc(CN(CCO)CCc2c[nH]c3ccccc23)cc1)NO [dacinostat]
NuRD complex; [7]
  Kd: 20 nM
NuRD complex; [8]
  Kd: 20 nM
NuRD complex; [9]
  Kd: 20 nM
NuRD complex; [10]
  Kd: 20 nM
NuRD complex; [11]
  Kd: 20 nM
NuRD complex; [12]
  Kd: 20 nM
MIER3
  Kd: 10 nM
[1]
  Kd: 1510 nM
[2]
  Kd: 1710 nM
[3]
  Kd: > 10000 nM
[4]
  Kd: 880 nM
[5]
  Kd: > 10000 nM
RERE
  Kd: > 10000 nM
CoREST complex; [13]
  Kd: 10 nM
CoREST complex; [14]
  Kd: 10 nM
CoREST complex; [15]
  Kd: 10 nM
CoREST complex; [16]
  Kd: 20 nM
CoREST complex; [17]
  Kd: 10 nM
CoREST complex; [18]
  Kd: 10 nM
CoREST complex; [19]
  Kd: 10 nM
MIER1
  Kd: 20 nM
